# Assay results taken from the supplement of paper PMC10307832.
# Tests used:
# Experiment in all cases: relative viability (nuclei count vs DMSO), 5 days (fraction); higher = more cells survive
# [1] = test system: NCI-H1666
# Method in brief: (§1)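 The day after seeding in 1536-well plates, lung cancer cell lines were treated by pin tool with a single drug, or with a fixed anchor-drug dose together with five library-drug doses (not always all listed) in √10 steps. After 5 days, a combined fix-and-stain solution (final 0.05% Triton X-100, 1% formaldehyde, 1 ug/ml Hoechst) was added. Nuclei counted on 4× images gave relative viability as treated counts over vehicle counts, reported as the median of duplicate plates.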
# [2] = test system: NCI-H1944
# Method in brief: as §1
# [3] = test system: HARA
# Method in brief: as §1
# [4] = test system: HCC-366
# Method in brief: as §1
# [5] = test system: NCI-H2347
# Method in brief: as §1
# [6] = test system: NCI-H1792
# Method in brief: as §1
# [7] = test system: NCI-H2405
# Method in brief: as §1
# [8] = test system: HCC-15
# Method in brief: as §1
# [9] = test system: NCI-H1734
# Method in brief: as §1
# [10] = test system: NCI-H358
# Method in brief: as §1
# [11] = test system: PC-3 [JPC-3]
# Method in brief: as §1
# [12] = test system: LU99A
# Method in brief: as §1
# [13] = test system: NCI-H1975
# Method in brief: as §1
# [14] = test system: NCI-H460
# Method in brief: as §1
# [15] = test system: NCI-H661
# Method in brief: as §1
# [16] = test system: NCI-H650
# Method in brief: as §1
# [17] = test system: NCI-H1623
# Method in brief: as §1
# [18] = test system: NCI-H838
# Method in brief: as §1
# [19] = test system: NCI-H1793
# Method in brief: as §1
# [20] = test system: NCI-H2228
# Method in brief: as §1
# [21] = test system: NCI-H3122
# Method in brief: as §1
# [22] = test system: LXF-289
# Method in brief: as §1
# [23] = test system: SW 1573
# Method in brief: as §1
compound,measurement,setting,value
Nc1cccc2c1CN(C1CCC(=O)NC1=O)C2=O (stereo not drawn) [Lenalidomide] + COc1cccc2cc(-c3nc([C@H]4CC[C@H](C(=O)O)CC4)n4ncnc(N)c34)[nH]c12 [OSI-027] (partner 0.5 µM),relative viability,[1]; first compound 0.253 µM,0.822
same,relative viability,[1]; first compound 2.53 µM,0.927
same,relative viability,[1]; first compound 8 µM,0.894
same,relative viability,[2]; first compound 0.253 µM,0.412
same,relative viability,[2]; first compound 0.8 µM,0.372
same,relative viability,[2]; first compound 2.53 µM,0.491
same,relative viability,[2]; first compound 8 µM,0.36
same,relative viability,[3]; first compound 0.253 µM,0.612
same,relative viability,[3]; first compound 2.53 µM,0.564
same,relative viability,[3]; first compound 8 µM,0.534
same,relative viability,[4]; first compound 0.253 µM,1.02
same,relative viability,[4]; first compound 0.8 µM,0.709
same,relative viability,[4]; first compound 2.53 µM,1.01
same,relative viability,[4]; first compound 8 µM,0.747
same,relative viability,[5]; first compound 0.253 µM,0.44
same,relative viability,[5]; first compound 0.8 µM,0.47
same,relative viability,[5]; first compound 2.53 µM,0.378
same,relative viability,[5]; first compound 8 µM,0.454
same,relative viability,[6]; first compound 0.253 µM,0.682
same,relative viability,[6]; first compound 0.8 µM,0.709
same,relative viability,[6]; first compound 2.53 µM,0.722
same,relative viability,[6]; first compound 8 µM,0.756
same,relative viability,[7]; first compound 0.253 µM,0.586
same,relative viability,[7]; first compound 0.8 µM,0.706
same,relative viability,[7]; first compound 2.53 µM,0.588
same,relative viability,[7]; first compound 8 µM,0.596
same,relative viability,[8]; first compound 0.253 µM,0.705
same,relative viability,[8]; first compound 0.8 µM,0.578
same,relative viability,[8]; first compound 2.53 µM,0.826
same,relative viability,[8]; first compound 8 µM,0.689
same,relative viability,[9]; first compound 0.253 µM,0.63
same,relative viability,[9]; first compound 0.8 µM,0.712
same,relative viability,[9]; first compound 2.53 µM,0.566
same,relative viability,[9]; first compound 8 µM,0.608
same,relative viability,[10]; first compound 0.253 µM,0.717
same,relative viability,[10]; first compound 0.8 µM,0.815
same,relative viability,[10]; first compound 2.53 µM,0.925
same,relative viability,[10]; first compound 8 µM,0.855
same,relative viability,[11]; first compound 0.253 µM,0.832
same,relative viability,[11]; first compound 0.8 µM,0.569
same,relative viability,[11]; first compound 2.53 µM,0.769
same,relative viability,[11]; first compound 8 µM,0.818
same,relative viability,[12]; first compound 0.253 µM,0.31
same,relative viability,[12]; first compound 0.8 µM,0.324
same,relative viability,[12]; first compound 2.53 µM,0.292
same,relative viability,[12]; first compound 8 µM,0.285
same,relative viability,[13]; first compound 0.253 µM,0.817
same,relative viability,[13]; first compound 0.8 µM,0.661
same,relative viability,[13]; first compound 2.53 µM,0.79
same,relative viability,[13]; first compound 8 µM,0.595
same,relative viability,[14]; first compound 0.253 µM,0.643
same,relative viability,[14]; first compound 0.8 µM,0.679
same,relative viability,[14]; first compound 2.53 µM,1.01
same,relative viability,[14]; first compound 8 µM,0.709
same,relative viability,[15]; first compound 0.253 µM,0.722
same,relative viability,[15]; first compound 0.8 µM,0.689
same,relative viability,[15]; first compound 2.53 µM,0.849
same,relative viability,[15]; first compound 8 µM,0.729
same,relative viability,[16]; first compound 0.253 µM,0.528
same,relative viability,[16]; first compound 2.53 µM,0.577
same,relative viability,[16]; first compound 8 µM,0.472
same,relative viability,[17]; first compound 0.253 µM,0.433
same,relative viability,[17]; first compound 0.8 µM,0.418
same,relative viability,[17]; first compound 2.53 µM,0.375
same,relative viability,[17]; first compound 8 µM,0.392
same,relative viability,[18]; first compound 0.253 µM,0.399
same,relative viability,[18]; first compound 0.8 µM,0.34
same,relative viability,[18]; first compound 2.53 µM,0.459
same,relative viability,[18]; first compound 8 µM,0.383
same,relative viability,[19]; first compound 0.253 µM,0.359
same,relative viability,[19]; first compound 2.53 µM,0.319
same,relative viability,[19]; first compound 8 µM,0.244
same,relative viability,[20]; first compound 0.253 µM,0.568
same,relative viability,[20]; first compound 0.8 µM,0.641
same,relative viability,[20]; first compound 2.53 µM,0.672
same,relative viability,[20]; first compound 8 µM,0.473
same,relative viability,[21]; first compound 0.253 µM,0.97
same,relative viability,[21]; first compound 0.8 µM,1.21
same,relative viability,[21]; first compound 2.53 µM,0.914
same,relative viability,[21]; first compound 8 µM,0.898
same,relative viability,[22]; first compound 0.253 µM,0.832
same,relative viability,[22]; first compound 0.8 µM,0.823
same,relative viability,[22]; first compound 2.53 µM,0.871
same,relative viability,[22]; first compound 8 µM,0.772
same,relative viability,[23]; first compound 0.253 µM,0.573
same,relative viability,[23]; first compound 0.8 µM,0.712
same,relative viability,[23]; first compound 2.53 µM,0.792
same,relative viability,[23]; first compound 8 µM,0.565
